Read-outs that look alike come from different tables or passages of the source.
Experiments:
in vitro = conditions: dog, MDCK, pH 7.4
DβH = target: T1, DβH (Homo sapiens, UniProt P09172); test: DβH inhibition cell assay (SK-N-SH cellular homogenates, tyramine to octopamine); assay type: biochemical; conditions: for remaining activity at 0.1 µM: read-out: DβH activity in % of Ctrl (0.1 μM); for remaining activity at 1 µM: read-out: DβH activity in % of Ctrl (1 μM); for remaining activity at 10 µM: inhibitor 10 μM, read-out: DβH activity in % of Ctrl (10 μM)
T1 construct: reaction mixture (total volume 500 μl) contained: cellular homogenate (75 μg total protein); host or cells: SK-N-SH cell homogenate
T1 sequence (P09172 1-617): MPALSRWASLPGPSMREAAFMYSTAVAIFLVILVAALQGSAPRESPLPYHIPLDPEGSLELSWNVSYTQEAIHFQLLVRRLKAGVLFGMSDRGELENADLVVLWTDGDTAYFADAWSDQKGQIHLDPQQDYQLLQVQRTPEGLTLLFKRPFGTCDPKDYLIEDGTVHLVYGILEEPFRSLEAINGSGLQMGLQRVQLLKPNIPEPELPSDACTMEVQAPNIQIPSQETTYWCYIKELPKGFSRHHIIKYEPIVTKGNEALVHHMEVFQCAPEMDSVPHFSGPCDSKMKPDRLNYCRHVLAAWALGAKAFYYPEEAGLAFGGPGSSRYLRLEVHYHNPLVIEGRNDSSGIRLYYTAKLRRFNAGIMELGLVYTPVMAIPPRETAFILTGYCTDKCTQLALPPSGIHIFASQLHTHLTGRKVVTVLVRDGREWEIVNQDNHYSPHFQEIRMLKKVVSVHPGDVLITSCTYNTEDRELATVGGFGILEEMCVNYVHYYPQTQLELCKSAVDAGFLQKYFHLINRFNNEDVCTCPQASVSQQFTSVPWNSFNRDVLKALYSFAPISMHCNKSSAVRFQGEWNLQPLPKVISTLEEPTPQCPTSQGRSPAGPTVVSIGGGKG

[1] = inhibitor 0.1 μM, SK-N-SH cell homogenate
[2] = inhibitor 1 μM, SK-N-SH cell homogenate

Row | Compound | Papp A→B at 30 min, 50 μM (in vitro) | remaining activity at 0.1 µM (DβH; [1]) | remaining activity at 1 µM (DβH; [2]) | remaining activity at 10 µM (DβH; SK-N-SH cell homogenate) | remaining activity at 1 µM (DβH) | remaining activity at 0.1 µM (DβH)
1 | NC(=S)N1CCC(c2ccccc2)C1 (stereo not drawn) [Example 1, 3-Phenylpyrrolidine-1-carbothioamide] | 63.1 ×10⁻⁶ cm/s | 75.6% | 42.4% | 4% |  | 
2 | NC(=S)N1CCC(c2cccs2)C1 (stereo not drawn) [Example 2, 3-(thiophen-2-yl)pyrrolidine-1-carbothioamide] | 126 ×10⁻⁶ cm/s | 54.9% |  | 0% |  | 
3 | CC1(c2ccccc2)CCN(C(N)=S)C1 (stereo not drawn) [Example 7, 3-methyl-3-phenylpyrrolidine-1-carbothioamide] | 100 ×10⁻⁶ cm/s | 84.8% | 37.7% | 7.5% |  | 
4 | NC(=S)N1CC2CC2(c2ccccc2)C1 (stereo not drawn) [Example 8, 1-phenyl-3-azabicyclo[3.1.0]hexane-3-carbothioamide] | 126 ×10⁻⁶ cm/s |  | 14.5% | 2.2% |  | 
5 | NC(=S)N1CCC(C2CCCCC2)C1 (stereo not drawn) [Example 9, 3-cyclohexylpyrrolidine-1-carbothioamide] | 251 ×10⁻⁶ cm/s |  | 30.9% | 5.3% |  | 
6 | Cc1ccc(C2CCN(C(N)=S)C2)s1 (stereo not drawn) [Example 10, 3-(5-methylthiophen-2-yl)pyrrolidine-1-carbothioamide] | 126 ×10⁻⁶ cm/s | 54.9% | 2.7% | 0% |  | 
7 | NC(=S)N1CCC(c2cc(F)cc(F)c2)C1 (stereo not drawn) [Example 12, 3-(3,5-Difluorophenyl)pyrrolidine-1-carbothioamide] | 79.4 ×10⁻⁶ cm/s | 63% | 11.5% | 0% |  | 
8 | NC(=S)N1CCC(c2ccsc2)C1 (stereo not drawn) [Example 15, 3-(thiophen-3-yl)pyrrolidine-1-carbothioamide] | 79.4 ×10⁻⁶ cm/s | 50.1% | 9.3% |  |  | 
9 | NC(=S)N1CCC(c2ccco2)C1 (stereo not drawn) [Example 17, 3-(furan-2-yl)pyrrolidine-1-carbothioamide] | 79.4 ×10⁻⁶ cm/s |  | 56.8% |  |  | 
10 | NC(=S)N1CCC(c2c(F)c(F)cc(F)c2F)C1 (stereo not drawn) [Example 23, 3-(2,3,5,6-Tetrafluorophenyl)pyrrolidine-1-carbothioamide] | 100 ×10⁻⁶ cm/s | 5.9% | 0% |  |  | 
11 | NC(=S)N1CCC(c2cc(F)cc(F)c2F)C1 (stereo not drawn) [Example 24, 3-(2,3,5-trifluorophenyl)pyrrolidine-1-carbothioamide] | 100 ×10⁻⁶ cm/s | 40.2% | 15.9% |  |  | 
12 | NC(=S)N1CC[C@@H](c2cc(F)cc(F)c2)C1 [Example 25, (S)-3-(3,5-difluorophenyl)pyrrolidine-1-carbothioamide] | 100 ×10⁻⁶ cm/s | 46.1% | 6.7% |  |  | 
13 | NC(=S)N1CC[C@H](c2cc(F)cc(F)c2)C1 [Example 26, (R)-3-(3,5-difluorophenyl)pyrrolidine-1-carbothioamide] | 100 ×10⁻⁶ cm/s |  | 21.4% |  |  | 
14 | NC(=S)N1C[C@H]2C[C@@]2(c2cccs2)C1 [Example 27, (1S,5S)-1-(thiophen-2-yl)-3-azabicyclo[3.1.0]hexane-3-carbothioamide] | 126 ×10⁻⁶ cm/s |  | 20.8% |  |  | 
15 | CNC(=S)N1C[C@@H]2C[C@]2(c2cc(F)cc(F)c2)C1 [Example 30, (1S,5R)-1-(3,5-Difluorophenyl)-N-methyl-3-azabicyclo[3.1.0]hexane-3-carbothioamide] | 126 ×10⁻⁶ cm/s | 3.3% | 2.8% |  |  | 
16 | CNC(=S)N1CCC(c2ccccc2)C1 (stereo not drawn) [Example 31, N-methyl-3-phenylpyrrolidine-1-carbothioamide] | 79.4 ×10⁻⁶ cm/s |  |  | 15.8% |  | 
17 | CNC(=S)N1CCC(c2cc(F)cc(F)c2)C1 (stereo not drawn) [Example 32, 3-(3,5-difluorophenyl)-N-methylpyrrolidine-1-carbothioamide] | 100 ×10⁻⁶ cm/s | 57.3% | 4.7% |  |  | 
18 | NC(=S)N1CC2CC2(c2cc(F)cc(F)c2)C1 (stereo not drawn) [Example 34, 1-(3,5-difluorophenyl)-3-azabicyclo[3.1.0]hexane-3-carbothioamide] | 63.1 ×10⁻⁶ cm/s | 12.3% | 0% |  |  | 
19 | NC(=S)N1CC2CC2(c2ccc(F)cc2F)C1 (stereo not drawn) [Example 37, 1-(2,4-difluorophenyl)-3-azabicyclo[3.1.0]hexane-3-carbothioamide] | 79.4 ×10⁻⁶ cm/s | 59.7% | 2.4% |  |  | 
20 | NC(=S)N1CC2CC2(c2cc(F)ccc2F)C1 (stereo not drawn) [Example 38, 1-(2,5-difluorophenyl)-3-azabicyclo[3.1.0]hexane-3-carbothioamide] | 79.4 ×10⁻⁶ cm/s | 3.3% | 0% |  |  | 
21 | CNC(=S)N1CC(c2cc(F)cc(F)c2)CC1=O (stereo not drawn) [Example 42, 4-(3,5-difluorophenyl)-N-methyl-2-oxopyrrolidine-1-carbothioamide] | 100 ×10⁻⁶ cm/s |  | 44.1% |  |  | 
22 | CNC(=S)N1CC2(c3cc(F)cc(F)c3)CC2C1=O (stereo not drawn) [Example 43, 1-(3,5-Difluorophenyl)-N-methyl-4-oxo-3-azabicyclo[3.1.0]hexane-3-carbothioamide] | 200 ×10⁻⁶ cm/s | 43.6% | 0% |  |  | 
23 | S=c1[nH]cc2n1CC(c1ccccc1)C2 (stereo not drawn) [Example 49, 6-phenyl-6,7-dihydro-2H-pyrrolo[1,2-c]imidazole-3(5H)-thione] | 100 ×10⁻⁶ cm/s |  |  |  | 60.6% | 
24 | Fc1cc(F)cc(C2Cc3c[nH]c(=S)n3C2)c1 (stereo not drawn) [Example 50, 6-(3,5-difluorophenyl)-6,7-dihydro-2H-pyrrolo[1,2-c]imidazole-3(5H)-thione] | 126 ×10⁻⁶ cm/s | 89.3% | 36.6% | 6.8% |  | 
25 | Fc1ccc(C2Cc3c[nH]c(=S)n3C2)c(F)c1 (stereo not drawn) [Example 51, 6-(2,4-Difluorophenyl)-6,7-dihydro-2H-pyrrolo[1,2-c]imidazole-3(5H)-thione] | 100 ×10⁻⁶ cm/s |  |  |  | 54.4% | 
26 | Fc1ccc(F)c(C2Cc3c[nH]c(=S)n3C2)c1 (stereo not drawn) [Example 52, 6-(2,5-difluorophenyl)-6,7-dihydro-2H-pyrrolo[1,2-c]imidazole-3(5H)-thione] | 100 ×10⁻⁶ cm/s |  | 27.3% |  |  | 
27 | Fc1cc(F)cc(C23CC2c2c[nH]c(=S)n2C3)c1 (stereo not drawn) [Example 53, 5a-(3,5-difluorophenyl)-5,5a,6,6a-tetrahydrocyclopropa[3,4]pyrrolo[1,2-c]imidazole-3(2H)-thione] | 25.1 ×10⁻⁶ cm/s |  |  |  | 11.8% | 66.5%
28 | Fc1cc(F)cc([C@]23C[C@H]2c2c[nH]c(=S)n2C3)c1 [Example 54, (5aS,6aR)-5a-(3,5-difluorophenyl)-5,5a,6,6a-tetrahydrocyclopropa[3,4]pyrrolo[1,2-c]imidazole-3(2H)-thione] | 25.1 ×10⁻⁶ cm/s | 44.3% | 8.2% |  |  | 
29 | Cc1[nH]c(=S)n2c1[C@@H]1C[C@]1(c1c(F)ccc(Br)c1F)C2 [Example 121, (5aS,6aR)-5a-(3-bromo-2,6-difluorophenyl)-1-methyl-5,5a,6,6a-tetrahydrocyclopropa[3,4]pyrrolo[1,2-c]imidazole-3 (2H)-thione] |  | 5.2% | 0% |  |  | 
30 | CC(C)NCC(O)COc1cccc2ccccc12 (stereo not drawn) [Propranolol, reference compound] | 63.1 ×10⁻⁶ cm/s |  |  |  |  | 

— patent US10975083B2, “Blood-brain barrier-penetrant dopamine-β-hydroxylase inhibitors” (BIAL—PORTELA & Cᵃ, S.A., priority 2016, dated 2021)
